Source: patent publication US4897402A, “5-oxa, 5-thia, 5-aza HmG-CoA reductase inhibitors” (Merck & Co., Inc., priority 1988, dated 1990)

target: T1, HMG-CoA reductase (Rattus norvegicus, UniProt P51639); assay: intrinsic HMG-CoA reductase inhibition, in vitro protocol of J. Med. Chem., 28, p. 347-358 (1985); type: biochemical; details: IC50 of test compound compared with that of compactin (mevastatin) determined simultaneously; compactin assigned a value of 100
T1 sequence (P51639 1-887): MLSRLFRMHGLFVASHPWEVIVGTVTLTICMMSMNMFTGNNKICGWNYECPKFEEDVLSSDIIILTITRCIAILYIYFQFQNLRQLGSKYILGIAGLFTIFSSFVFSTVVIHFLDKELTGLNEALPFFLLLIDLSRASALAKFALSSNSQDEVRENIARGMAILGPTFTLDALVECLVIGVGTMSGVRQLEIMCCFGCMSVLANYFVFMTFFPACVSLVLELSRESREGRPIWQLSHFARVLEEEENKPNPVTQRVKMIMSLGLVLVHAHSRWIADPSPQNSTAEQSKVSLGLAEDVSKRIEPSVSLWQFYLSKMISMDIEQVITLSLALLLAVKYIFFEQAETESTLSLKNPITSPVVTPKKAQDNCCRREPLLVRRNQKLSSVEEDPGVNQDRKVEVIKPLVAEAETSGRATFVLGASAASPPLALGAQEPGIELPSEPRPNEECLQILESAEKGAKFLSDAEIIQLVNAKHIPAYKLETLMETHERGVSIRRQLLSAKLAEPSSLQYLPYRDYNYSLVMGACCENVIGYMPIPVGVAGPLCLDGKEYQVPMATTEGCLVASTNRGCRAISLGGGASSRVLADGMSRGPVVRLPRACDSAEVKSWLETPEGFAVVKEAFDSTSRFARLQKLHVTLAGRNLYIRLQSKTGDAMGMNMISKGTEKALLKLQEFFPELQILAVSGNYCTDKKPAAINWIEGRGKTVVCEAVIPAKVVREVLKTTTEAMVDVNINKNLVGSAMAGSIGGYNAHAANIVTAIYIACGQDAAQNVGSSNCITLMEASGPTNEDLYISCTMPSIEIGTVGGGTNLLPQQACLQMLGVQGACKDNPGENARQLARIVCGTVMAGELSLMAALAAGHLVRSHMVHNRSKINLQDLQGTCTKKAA
Experimental: The intrinsic HMG--CoA reductase inhibition activity of the claimed compounds is measured in the in vitro protocol published in J. Med. Chem., 28, p. 347-358 (1985).
For estimation of relative inhibitory potencies, compactin (i.e., mevastatin) was assigned a value of 100 and the IC50 value of the test compound was compared with that of compactin determined simultaneously in the published in vitro protocol.
Representative of the intrinsic HMG-CoA reductase inhibitory activities of the claimed compounds are the following potencies.

| Relative Potency | Structure (SMILES) |
| --- | --- |
| 96 | CCC(C)(C)C(=O)O[C@H]1CC(C)(C)O[C@@H]2CC[C@H](C)[C@H](CC[C@@H]3C[C@@H](O)CC(=O)O3)[C@@H]12 [Compound 9, 6(R) [2-[8(S)-(2,2-dimethylbutyryloxy)-2(S)-methyl-5-oxa-6,6-dimethyl-1,2,3,4,4a(R),7,8,8a(R)-octahydronaphthyl-1(S)]ethyl]-4(R)-hydroxy-3,4,5,6-tetrahydro-2H-pyran-2-one] |
| 258 | CCC(C)(C)C(=O)O[C@H]1C[C@@](C)(CSc2ccccc2)O[C@@H]2CC[C@H](C)[C@H](CC[C@@H]3C[C@@H](O)CC(=O)O3)[C@@H]12 [Compound 10, 6(R)-[2-[8(S)-(2,2-dimethylbutyryloxy)-2(S)-methyl-5-oxa-6(S)-(phenylthiomethyl, methyl)-1,2,3,4,4a(R),7,8,8a(R)-octahydronaphthyl-1(S)]ethyl]4(R)-hydroxy 3,4,5,6-tetrahydro-2H-pyran-2-one] |
| 280 | CCC(C)(C)C(=O)O[C@H]1C[C@](C)(CSc2ccccc2)O[C@@H]2CC[C@H](C)[C@H](CC[C@@H]3C[C@@H](O)CC(=O)O3)[C@@H]12 [Compound 11, 6(R)-[2-[8(S)-(2,2-dimethylbutyryloxy)-2(S)-methyl-5-oxa-6(R)-(phenylthiomethyl, methyl)-1,2,3,4,4a(R),7,-8,8a(R)-octahydronaphthyl-1(S)]ethyl]-4-(R)-hydroxy 3,4,5,6-tetrahydro-2H-pyran-2-one] |
